Columns and labels:
[1] = target: Matrix metalloproteinase-9 (Homo sapiens, UniProt P14780); test: biochemical; type: cell-based;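 also: inhibition of isolated MMP-9 enzyme activity toward a synthetic peptide substrate, from the DrugMatrix protease screening panel; in other assays of this panel Not Active means under 50% inhibition at 10 µM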
Cytochrome P450 1A2 = target: T1, Cytochrome P450 1A2 (Homo sapiens, UniProt P05177); details: bti-tn-5b1-4; also: in other assays of this panel Not Active means under 50% inhibition at 10 µM
T1 sequence (P05177 whole entry): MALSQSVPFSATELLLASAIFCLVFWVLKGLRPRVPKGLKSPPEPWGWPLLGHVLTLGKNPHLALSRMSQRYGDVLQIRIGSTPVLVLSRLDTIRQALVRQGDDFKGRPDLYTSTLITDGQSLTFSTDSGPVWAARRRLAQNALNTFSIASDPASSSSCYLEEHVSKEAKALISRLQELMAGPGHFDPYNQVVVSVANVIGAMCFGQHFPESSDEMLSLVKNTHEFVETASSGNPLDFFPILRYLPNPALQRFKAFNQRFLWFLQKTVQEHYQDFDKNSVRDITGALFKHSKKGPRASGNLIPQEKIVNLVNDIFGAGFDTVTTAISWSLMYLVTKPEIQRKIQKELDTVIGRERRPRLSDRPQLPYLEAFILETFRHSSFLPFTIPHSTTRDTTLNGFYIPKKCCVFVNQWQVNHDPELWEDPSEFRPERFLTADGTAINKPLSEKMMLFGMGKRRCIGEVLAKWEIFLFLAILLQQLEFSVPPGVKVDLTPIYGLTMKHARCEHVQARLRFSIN

[2] = target: Epidermal growth factor receptor (Homo sapiens, UniProt P00533); test: DRUGMATRIX: Protein Tyrosine Kinase, EGF Receptor enzyme inhibition (substrate: Poly(Glu:Tyr)); type: cell-based, Insect cells; details: insect cells; Not Active = under 50% inhibition at 10 µM
[3] = target: Mitogen-activated protein kinase 14 (Homo sapiens, UniProt Q16539); design: species or system Escherichia coli;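 also: inhibition of p38alpha enzyme activity in a biochemical kinase assay, with myelin basic protein serving as substrate; in other assays of this panel Not Active means under 50% inhibition at 10 µM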
Chain of Mitogen-activated protein kinase 14 (Q16539 whole entry): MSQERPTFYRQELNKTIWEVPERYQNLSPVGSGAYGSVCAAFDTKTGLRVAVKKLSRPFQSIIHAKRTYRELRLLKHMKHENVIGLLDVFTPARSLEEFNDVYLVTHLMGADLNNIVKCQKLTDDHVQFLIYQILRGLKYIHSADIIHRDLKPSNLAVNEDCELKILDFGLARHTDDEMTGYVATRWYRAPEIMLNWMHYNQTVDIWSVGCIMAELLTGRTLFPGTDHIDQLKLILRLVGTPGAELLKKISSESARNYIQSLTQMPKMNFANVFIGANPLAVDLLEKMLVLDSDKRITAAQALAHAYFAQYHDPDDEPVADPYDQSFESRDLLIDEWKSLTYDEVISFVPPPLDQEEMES

Cytochrome P450 2C9 = Cytochrome P450 2C9 (Homo sapiens, UniProt P11712); details: bti-tn-5b1-4; also: in other assays of this panel Not Active means under 50% inhibition at 10 µM
Chain of Cytochrome P450 2C9 (P11712 whole entry): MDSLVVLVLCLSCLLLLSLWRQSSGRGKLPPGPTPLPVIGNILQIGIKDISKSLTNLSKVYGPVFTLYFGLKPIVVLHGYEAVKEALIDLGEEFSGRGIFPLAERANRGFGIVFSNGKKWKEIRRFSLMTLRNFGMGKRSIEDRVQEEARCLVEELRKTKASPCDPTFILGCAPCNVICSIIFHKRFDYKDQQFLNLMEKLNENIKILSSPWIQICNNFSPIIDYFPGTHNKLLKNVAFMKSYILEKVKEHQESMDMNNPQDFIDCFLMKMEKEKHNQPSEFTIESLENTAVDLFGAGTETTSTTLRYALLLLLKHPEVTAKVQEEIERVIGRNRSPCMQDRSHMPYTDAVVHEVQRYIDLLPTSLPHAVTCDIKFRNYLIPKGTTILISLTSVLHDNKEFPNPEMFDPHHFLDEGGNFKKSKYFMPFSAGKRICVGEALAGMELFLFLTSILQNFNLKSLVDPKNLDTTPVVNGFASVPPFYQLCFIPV

Nitric oxide synthase 1 = Nitric oxide synthase 1 (Rattus norvegicus, UniProt P29476); type: tissue-based, Cerebellum; also: in other assays of this panel Not Active means under 50% inhibition at 10 µM
Chain of Nitric oxide synthase 1 (P29476 whole entry): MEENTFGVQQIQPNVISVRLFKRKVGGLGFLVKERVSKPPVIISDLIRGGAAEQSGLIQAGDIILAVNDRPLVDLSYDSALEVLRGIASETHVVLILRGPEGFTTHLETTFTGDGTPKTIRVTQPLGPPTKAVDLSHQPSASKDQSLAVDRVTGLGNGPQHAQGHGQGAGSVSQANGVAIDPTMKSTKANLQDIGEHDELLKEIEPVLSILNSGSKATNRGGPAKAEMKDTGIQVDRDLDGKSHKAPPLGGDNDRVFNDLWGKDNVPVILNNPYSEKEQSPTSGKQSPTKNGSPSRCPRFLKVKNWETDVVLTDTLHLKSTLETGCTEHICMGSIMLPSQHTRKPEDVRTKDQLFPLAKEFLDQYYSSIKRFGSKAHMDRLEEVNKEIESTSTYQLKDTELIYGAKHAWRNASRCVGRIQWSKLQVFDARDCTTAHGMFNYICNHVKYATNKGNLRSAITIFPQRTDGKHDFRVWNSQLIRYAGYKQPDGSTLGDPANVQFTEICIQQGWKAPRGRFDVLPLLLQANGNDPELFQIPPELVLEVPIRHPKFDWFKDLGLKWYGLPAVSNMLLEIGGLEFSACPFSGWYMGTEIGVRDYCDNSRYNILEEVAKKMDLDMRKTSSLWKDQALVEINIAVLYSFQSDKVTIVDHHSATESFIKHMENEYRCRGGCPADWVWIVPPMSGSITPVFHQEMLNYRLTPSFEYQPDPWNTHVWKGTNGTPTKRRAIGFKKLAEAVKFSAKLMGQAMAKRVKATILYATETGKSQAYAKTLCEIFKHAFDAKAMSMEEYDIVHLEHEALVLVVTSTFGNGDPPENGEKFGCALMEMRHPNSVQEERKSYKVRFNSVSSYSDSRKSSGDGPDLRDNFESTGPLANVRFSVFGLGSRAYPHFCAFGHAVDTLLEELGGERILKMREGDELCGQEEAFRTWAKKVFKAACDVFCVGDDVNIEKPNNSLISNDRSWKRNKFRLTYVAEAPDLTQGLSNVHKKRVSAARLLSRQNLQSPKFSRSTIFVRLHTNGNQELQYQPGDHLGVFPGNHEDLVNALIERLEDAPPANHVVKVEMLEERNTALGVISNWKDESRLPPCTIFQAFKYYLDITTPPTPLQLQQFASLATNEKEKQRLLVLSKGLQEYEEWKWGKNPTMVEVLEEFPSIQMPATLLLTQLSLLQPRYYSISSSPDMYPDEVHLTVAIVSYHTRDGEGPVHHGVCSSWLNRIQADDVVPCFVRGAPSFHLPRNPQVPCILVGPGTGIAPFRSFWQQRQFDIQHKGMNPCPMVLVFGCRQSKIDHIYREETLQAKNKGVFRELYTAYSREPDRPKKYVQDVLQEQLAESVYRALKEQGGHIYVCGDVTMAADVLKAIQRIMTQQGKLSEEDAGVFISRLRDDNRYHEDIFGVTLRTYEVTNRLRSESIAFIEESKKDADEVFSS

Chain of Matrix metalloproteinase-9 (P14780 whole entry): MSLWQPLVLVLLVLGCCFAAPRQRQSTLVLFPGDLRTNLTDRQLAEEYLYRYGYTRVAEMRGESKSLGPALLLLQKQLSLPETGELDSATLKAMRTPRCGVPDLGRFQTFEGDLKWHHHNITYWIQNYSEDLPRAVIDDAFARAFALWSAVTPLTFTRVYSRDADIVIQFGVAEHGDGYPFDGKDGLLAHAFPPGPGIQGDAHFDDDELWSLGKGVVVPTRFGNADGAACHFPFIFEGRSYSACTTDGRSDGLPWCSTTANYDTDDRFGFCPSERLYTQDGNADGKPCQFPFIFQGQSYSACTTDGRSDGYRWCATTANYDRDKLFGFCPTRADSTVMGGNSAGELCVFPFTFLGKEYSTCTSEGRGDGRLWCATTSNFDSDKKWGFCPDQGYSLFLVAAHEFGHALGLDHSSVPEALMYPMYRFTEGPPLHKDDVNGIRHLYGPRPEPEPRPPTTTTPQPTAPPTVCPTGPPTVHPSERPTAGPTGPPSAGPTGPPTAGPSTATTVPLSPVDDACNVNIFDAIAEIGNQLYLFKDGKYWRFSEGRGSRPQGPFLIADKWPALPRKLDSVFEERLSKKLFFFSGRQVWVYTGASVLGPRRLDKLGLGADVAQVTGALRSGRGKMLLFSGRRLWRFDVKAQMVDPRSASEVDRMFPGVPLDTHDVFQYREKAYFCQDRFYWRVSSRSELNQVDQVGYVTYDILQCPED

Molecule	IC50 [1]	IC50 (Cytochrome P450 1A2)	Ki (Cytochrome P450 1A2)	IC50 [2]	IC50 [3]	IC50 (Cytochrome P450 2C9)	Ki (Cytochrome P450 2C9)	IC50 (Nitric oxide synthase 1)	Ki [1]	Ki [2]	Ki [3]	Ki (Nitric oxide synthase 1)	IC50 ([1]; read-out: IC50)
O=c1cnn([C@@H]2O[C@H](CO)[C@@H](O)[C@H]2O)c(=O)[nH]1 [6-AZAURIDINE]	Not Active	Not Active	Not Active	Not Active	Not Active	Not Active	Not Active	Not Active					
COC(=O)CCc1ccc(OCC(O)CNC(C)C)cc1 (centres undefined) [ESMOLOL]	Not Active	Not Active	Not Active	Not Active	Not Active	Not Active	Not Active	Not Active					
NYSTATIN	Not Active	Not Active	Not Active	Not Active	Not Active	Not Active	Not Active	Not Active	Not Active	Not Active	Not Active	Not Active	
COc1cc(N)c(Cl)cc1C(=O)NC1CCN(CCCOc2ccc(F)cc2)CC1OC (centres undefined) [CISAPRIDE]	Not Active	Not Active	Not Active	Not Active	Not Active	Not Active	Not Active	Not Active					
Brc1c(NC2=NCCN2)ccc2nccnc12 [BRIMONIDINE]	Not Active	Not Active	Not Active	Not Active	Not Active	Not Active	Not Active	Not Active					
C[n+]1ccccc1/C=N/O.[Cl-] [PRALIDOXIME CHLORIDE]	Not Active	Not Active	Not Active	Not Active	Not Active	Not Active	Not Active	Not Active					
COc1cc2nc(N3CCN(C(=O)c4ccco4)CC3)nc(N)c2cc1OC [PRAZOSIN]		Not Active	Not Active	Not Active	Not Active	Not Active	Not Active	Not Active					6.96 µM
Cc1c(OCC(F)(F)F)ccnc1C[S+]([O-])c1nc2ccccc2[nH]1 (centres undefined) [LANSOPRAZOLE]	Not Active	Not Active	Not Active	Not Active	Not Active	Not Active	Not Active	Not Active					
COc1ccc(C2C(=O)c3ccccc3C2=O)cc1 [ANISINDIONE]	Not Active	Not Active	Not Active	Not Active	Not Active	Not Active	Not Active	Not Active					
COC(=O)Nc1nc2ccc([S+]([O-])c3ccccc3)cc2[nH]1 (centres undefined) [OXFENDAZOLE]	Not Active	Not Active	Not Active	Not Active	Not Active	Not Active	Not Active	Not Active					
CC(C(=O)O)c1ccc2oc(-c3ccc(Cl)cc3)nc2c1 (centres undefined) [BENOXAPROFEN]	Not Active	Not Active	Not Active	Not Active	Not Active	Not Active	Not Active	Not Active					
Cc1cc2c(OCC(CNC(C)(C)C)OC(=O)c3ccccc3)cccc2[nH]1 (centres undefined) [BOPINDOLOL]	Not Active	Not Active	Not Active	Not Active	Not Active	Not Active	Not Active	Not Active					
Nc1ccn([C@@H]2O[C@H](CO)[C@@H](O)C2(F)F)c(=O)n1 [GEMCITABINE]	Not Active	Not Active	Not Active	Not Active	Not Active	Not Active	Not Active	Not Active					
COc1ccc2[nH]cc(CCNC(C)=O)c2c1 [MELATONIN]	Not Active	Not Active	Not Active	Not Active	Not Active	Not Active	Not Active	Not Active					
GADOPENTETATE DIMEGLUMINE	Not Active	Not Active	Not Active	Not Active	Not Active	Not Active	Not Active	Not Active	Not Active	Not Active	Not Active	Not Active	
C#CC1(O)CC[C@H]2[C@@H]3CCC4=CC(=O)CC[C@@H]4[C@H]3CC[C@@]21CC (some centres undefined) [NORGESTREL]	Not Active	Not Active	Not Active	Not Active	Not Active	Not Active	Not Active	Not Active					
C[n+]1ccc(-c2cc[n+](C)cc2)cc1.[Cl-].[Cl-] [PARAQUAT DICHLORIDE]	Not Active	Not Active	Not Active	Not Active	Not Active	Not Active	Not Active	Not Active					
C[C@@H]1CC[C@@]2(OC1)O[C@H]1[C@@H](O)[C@H]3[C@@H]4CC[C@H]5C[C@@H](O[C@@H]6O[C@H](CO)[C@H](O[C@@H]7O[C@H](CO)C(O)[C@H](O[C@@H]8OC[C@@H](O)[C@H](O)[C@H]8O)[C@H]7O[C@@H]7O[C@H](CO)[C@H](O)[C@H](O[C@@H]8O[C@H](CO)[C@@H](O)[C@H](O)[C@H]8O)[C@H]7O)[C@H](O)[C@H]6O)[C@H](O)C[C@]5(C)[C@H]4CC[C@]3(C)[C@H]1[C@@H]2C (some centres undefined) [DIGITONIN]	Not Active	Not Active	Not Active	Not Active	Not Active	Not Active	Not Active	Not Active					
O=C1CN=C(c2ccccc2Cl)c2cc([N+](=O)[O-])ccc2N1 [CLONAZEPAM]	Not Active	Not Active	Not Active	Not Active	Not Active	Not Active	Not Active	Not Active					
C[C@@H](CO)NC(=O)[C@@H]1C=C2c3cccc4[nH]cc(c34)C[C@H]2N(C)C1 [ERGONOVINE]	Not Active	Not Active	Not Active	Not Active	Not Active	Not Active	Not Active	Not Active					
C[C@@H]1C[C@H]2[C@@H]3CCC4=CC(=O)C=C[C@]4(C)[C@@]3(F)[C@@H](O)C[C@]2(C)[C@H]1C(=O)CO [DESOXIMETASONE]	Not Active	Not Active	Not Active	Not Active	Not Active	Not Active	Not Active	Not Active					
CN(C)CC[C@@H](c1ccc(Cl)cc1)c1ccccn1 [DEXCHLORPHENIRAMINE]	Not Active	Not Active	Not Active	Not Active	Not Active	Not Active	Not Active	Not Active					
